What was measured:
NT2-D1 = experiment: Resazurin reduction cell viability assay, NT2-D1; type: cell-based, human; conditions: 72 h of treatment; mean ± sd
Description: (§1) The compounds under investigation were tested on a panel of commercial human cancer cell lines: ovarian endometrioid adenocarcinoma A2780 (ICLC HTL98008), its cisplatin-resistant variant A2780cisR (ECACC 93112517), colon carcinoma HCT 116 (ECACC 91091005), breast invasive ductal carcinoma MCF7 (ECACC 86012803), embryonal carcinoma NTERA-2 clone D1 (also known as NT2/D1, ICLC HTL97025), and lung adenocarcinoma A549 (ICLC HTL03001). Furthermore, a cell line derived from the pleural effusion of a patient with untreated malignant pleural mesothelioma (MPM) was added to the panel, namely, MM98 (sarcomatoid phenotype). Commercial cells were purchased from the European Collection of Authenticated Cell Cultures (ECACC, UK) or the Interlab Cell Line Collection (ICLC, Genoa, Italy), while the MM98 cell line was obtained from the Pathology Unit of the National Hospital of Alessandria (Italy).
(§2) The following media were used to grow the cells: RPMI 1640 (for A2780, A2780cisR, NT2/D1, and A549 cells), DMEM (for MCF7 cells), DMEM supplemented with nonessential amino acids (for MM98 cells), and McCoy's 5A (for HCT 116 cells). All media contained L-glutamine (2 mM) and were added with penicillin (100 IU·mL^−1), streptomycin (100 mg·L^−1), and 10% heat inactivated FBS. To maintain resistance in A2780cisR cells, cisplatin (1 μM) was added to the medium every two passages.
(§3) Continuous treatments (CT) were carried out at 37°C in a humidified chamber with 5% CO2. Cisplatin was dissolved in a 0.9% w/v NaCl aqueous solution and brought to pH = 3 with HCl (final stock concentration 1 mM). The Pt(IV) Complexes 1–3 were dissolved in milliQ water (final stock concentration 5 mM) and stored at −20°C. The stock concentration was confirmed with inductively coupled plasma-mass spectrometry (ICP-MS) measurements. The mother solutions were diluted in a complete medium to the required concentration.
(§4) To assess the growth inhibition of the compounds under investigation, a cell viability test (i.e., the resazurin reduction assay) was used. […] At the end of the treatment (72 h), viability was evaluated with 100 μg·mL^−1 resazurin (Acros Chemicals, France) in a fresh medium for 1 h at 37°C, and the amount of the reduced product, resorufin, was measured by fluorescence (excitation λ = 535 nm, emission λ = 595 nm) with a Tecan Infinite F200Pro plate reader (Tecan, Austria). In each experiment, cells were challenged with drug candidates at different concentrations, and the final data were calculated from at least three replicates of the same experiment performed in triplicate. The fluorescence of 8 wells containing a medium without cells was used as a blank. Fluorescence data were normalized to 100% cell viability for nontreated cells. […]

MM98 = experiment: Resazurin reduction cell viability assay, MM98; type: cell-based, human; conditions: 72 h of treatment; mean ± sd
Description: as §1, §2, §3, §4

[1] = test system: panel of human cancer cell lines; experiment: Antiproliferative activity, panel of human cancer cell lines (average); type: cell-based; conditions: 72 h; for IC50: wild cell panel
Description: as §1
The following media were used to grow the cells: RPMI 1640 (for A2780, A2780cisR, NT2/D1, and A549 cells), DMEM (for MCF7 cells), DMEM supplemented with nonessential amino acids (for MM98 cells), and McCoy's 5A (for HCT 116 cells). […]
as §4

[2] = Stability in cell culture medium (HPLC-MS); type: physicochemical; conditions: 72 h, 37°C, dark, RPMI 1640 + 10% FBS, 100 μM
Description: The stability in the solution of Complexes 1–3 (100 μM) was studied by aging the compounds for 72 h at 37°C in the dark in the same cell culture medium employed for the A2780 cell line (i.e., RPMI 1640 medium added with 10% fetal bovine serum, FBS). The area of the chromatographic peaks of the Pt complexes was monitored in HPLC-MS, using a 70 : 30 mixture of 15 mM aqueous HCOOH and CH3OH as the mobile phase (see Section 2.3, settings i), for further instrumental details). ESI mass spectra, recorded using cone and capillary voltages of +30 V (positive ion mode) and 2.70 kV, were used to confirm the identity of the species.

A2780 cells = experiment: DNA platination in A2780 cells; type: cell-based, human; conditions: A2780, 24 h CT, 10 μM
Description: Cells were seeded in 175 cm^2 flasks and treated for 24 h with the complexes under investigation (10 μM) as described previously. From this sample, about 5 × 10^6 cells were taken out for the cellular accumulation analysis (see the previous section), whereas about 20 × 10^6 cells were taken out for the DNA platination analysis.
For DNA platination analysis, cells were transferred to a plastic tube and centrifuged at 1100 rpm for 5 min at room temperature. […]
After washing, DNA was eluted in 300 μL of elution buffer. […] Absorbance at 260 nm (A260, relative to nucleic acids) and 280 nm (A280, relative to proteins) was recorded from triplicate wells.
For each well, A260 and A280 were corrected by subtracting the background, and then the purity of the samples was verified by means of the A260 to A280 ratio. After subtracting the mean A260 from the blank wells, the DNA concentration was calculated from the corrected A260 using a calibration curve obtained with the calf thymus DNA. Under these conditions, an absorbance of 1 unit at 260 nm corresponds to 100 μg of DNA per mL. The remaining amount of DNA elution buffer was transferred to a borosilicate glass tube, and its precise volume was determined by weight to calculate the total amount of DNA and then stored at −20°C until mineralization. […]

Structure (SMILES): N.N.[Cl][Pt][Cl] [Cisplatin, (SP-4-2)-diamminedichloridoplatinum(II)]
- IC50 (NT2-D1): 100 ± 40 nM
- IC50 (MM98): 3200 ± 1020 nM
- IC50 [1]: 2720 nM

Structure (SMILES): N.N.[OH][Pt]([OH])([Cl])[Cl] [Complex 1, (OC-6-33)-diamminedichloridodihydroxidoplatinum(IV)]
- IC50 (NT2-D1): 1440 ± 160 nM
- IC50 (MM98): > 100000 nM
- remaining intact, % of the original HPLC peak [2]: > 95%

Structure (SMILES): CC(=O)[O][Pt]([OH])([Cl])[Cl].N.N [Complex 2, (OC-6-44)-acetatodiamminedichloridohydroxidoplatinum(IV)]
- IC50 (NT2-D1): 210 ± 80 nM
- IC50 (MM98): 3670 ± 1320 nM
- potency, times higher than those of 1 and 3 ([1]; panel of human cancer cell lines): 10–100 times
- IC50 [1]: 2910 nM
- DNA platination (A2780 cells): the highest among Complexes 1–3 and was similar to that of cisplatin
- partial hydrolysis [2]: approximately 40%

Structure (SMILES): CC(=O)[O][Pt]([NH2])([NH2])([Cl])([Cl])[O]C(C)=O [Complex 3, (OC-6-33)-diamminedichloridodiacetatoplatinum(IV)]
- IC50 (NT2-D1): 4300 ± 1130 nM
- IC50 (MM98): > 100000 nM
- remaining intact, % of the original HPLC peak [2]: > 85%

Reference: publication PMC9822769, “The Strange Case: The Unsymmetric Cisplatin-Based Pt(IV) Prodrug [Pt(CH3COO)Cl2(NH3)2(OH)] Exhibits Higher Cytotoxic Activity with respect to Its Symmetric Congeners due to Carrier-Mediated Cellular Uptake” (Bioinorganic Chemistry and Applications, 2022)
